Experimental data as given in publication PMC6345968, “Structural basis for species-selective targeting of Hsp90 in a pathogenic fungus” (Nature Communications, 2019).
Values joined by “and” are separate entries in the source; they are usually repeats but may differ in a detail not shown here. Identical values can stand only once. Like-named read-outs stand apart in the source and are kept apart here.

Legend:
[1] = target: human Hsp90 NBD (Homo sapiens, UniProt P08238); conditions: 0.1 nM Cy3-GdA, Human NBD-Hsp90 (10 nM); for FP signal (raw) / FP signal as fraction of no-compound (0 uM) control: Experiments 1-3
[2] = target: human Grp94 NBD (Homo sapiens, UniProt P14625); conditions: 0.1 nM Cy3-GdA, Experiments 1-3
[3] = target: T1, C. albicans Hsp90 NBD (Candida albicans, UniProt P46598); assay: biochemical; format: binding; conditions: 0.1 nM Cy3-GdA, C. albicans NBD-Hsp90 (10 nM); for FP signal (raw) / FP signal as fraction of no-compound (0 uM) control: Experiments 1-3
T1 construct: C. albicans Hsp90 (E7-K218); made in house; host or cells: E. coli Rosetta2

[4] = Experiments 1-3, one value per experiment

T1 sequence (P46598 7-218): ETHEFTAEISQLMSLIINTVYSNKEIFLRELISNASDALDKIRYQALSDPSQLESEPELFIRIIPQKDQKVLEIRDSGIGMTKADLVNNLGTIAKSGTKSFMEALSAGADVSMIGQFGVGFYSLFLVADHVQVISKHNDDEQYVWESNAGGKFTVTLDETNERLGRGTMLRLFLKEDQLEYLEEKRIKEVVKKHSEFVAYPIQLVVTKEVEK
Sequence of human Hsp90 NBD (P08238 1-223): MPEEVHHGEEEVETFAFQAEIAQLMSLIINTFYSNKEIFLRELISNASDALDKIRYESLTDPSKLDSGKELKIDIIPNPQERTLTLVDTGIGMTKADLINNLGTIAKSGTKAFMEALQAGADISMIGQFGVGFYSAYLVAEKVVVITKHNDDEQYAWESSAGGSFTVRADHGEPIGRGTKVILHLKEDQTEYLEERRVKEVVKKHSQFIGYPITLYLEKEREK
Sequence of human Grp94 NBD (P14625 63-337): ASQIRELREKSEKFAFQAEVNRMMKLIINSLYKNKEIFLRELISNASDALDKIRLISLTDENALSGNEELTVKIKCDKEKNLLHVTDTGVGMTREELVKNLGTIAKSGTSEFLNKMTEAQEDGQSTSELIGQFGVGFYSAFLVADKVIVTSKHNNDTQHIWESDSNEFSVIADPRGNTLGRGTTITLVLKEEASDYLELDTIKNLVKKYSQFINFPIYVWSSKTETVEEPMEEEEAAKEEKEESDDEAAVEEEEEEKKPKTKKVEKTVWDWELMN

With `COc1ccc(CON=C2C=CC=CC3OC3CC(C)OC(=O)c3c(O)cc(O)cc3C2)cc1` (mixture of isomers) [LEB075] the EC50 [1, 4] was 1650 nM and 1630 nM, the “FP signal (raw)” value ([1]; Cmpd 0.002 uM) was 147 and 148 and the “FP signal as fraction of no-compound (0 uM) control” value ([1]; Cmpd 0.002 uM) was 0.98 and 0.9737. The “FP signal (raw)” value ([1]; Cmpd 0.004 uM) was 148 and 151, the “FP signal as fraction of no-compound (0 uM) control” value ([1]; Cmpd 0.004 uM) was 0.9867 and 0.9934 and the “FP signal (raw)” value ([1]; Cmpd 0.008 uM) was 149. For the same compound, the “FP signal as fraction of no-compound (0 uM) control” value ([1]; Cmpd 0.008 uM) was 0.9933 and 0.9803, the “FP signal (raw)” value ([1]; Cmpd 0.016 uM) was 150 and 149 and the “FP signal as fraction of no-compound (0 uM) control” value ([1]; Cmpd 0.016 uM) was 1 and 0.9803. For the same compound, the “FP signal (raw)” value ([1]; Cmpd 0.063 uM) was 147 and 150, the “FP signal as fraction of no-compound (0 uM) control” value ([1]; Cmpd 0.063 uM) was 0.98 and 0.9868 and the “FP signal (raw)” value ([1]; Cmpd 0.25 uM) was 141 and 143. For the same compound, the “FP signal as fraction of no-compound (0 uM) control” value ([1]; Cmpd 0.25 uM) was 0.94 and 0.9408, the “FP signal (raw)” value ([1]; Cmpd 0.5 uM) was 130 and the “FP signal as fraction of no-compound (0 uM) control” value ([1]; Cmpd 0.5 uM) was 0.8667 and 0.8553. The “FP signal (raw)” value ([1]; Cmpd 1 uM) was 112 and 106, the “FP signal as fraction of no-compound (0 uM) control” value ([1]; Cmpd 1 uM) was 0.7067 and 0.7368 and the “FP signal (raw)” value ([1]; Cmpd 2 uM) was 58 and 61. For the same compound, the “FP signal as fraction of no-compound (0 uM) control” value ([1]; Cmpd 2 uM) was 0.4067 and 0.3816, the “FP signal (raw)” value ([2]; Cmpd 0.002 uM) was 157 and the “FP signal (raw)” value ([2]; Cmpd 0.004 uM) was 159. The “FP signal (raw)” value ([2]; Cmpd 0.008 uM) was 150, the “FP signal (raw)” value ([2]; Cmpd 0.016 uM) was 147 and the “FP signal (raw)” value ([2]; Cmpd 0.063 uM) was 136. For the same compound, the “FP signal (raw)” value ([2]; Cmpd 0.25 uM) was 109, the EC50 [3, 4] was 82.3 nM and 83.8 nM and the “FP signal (raw)” value ([3]; Cmpd 0.002 uM) was 109 and 127. The “FP signal as fraction of no-compound (0 uM) control” value ([3]; Cmpd 0.002 uM) was 0.6412 and 0.7471, the “FP signal (raw)” value ([3]; Cmpd 0.004 uM) was 109 and the “FP signal as fraction of no-compound (0 uM) control” value ([3]; Cmpd 0.004 uM) was 0.6412 and 0.6941. The “FP signal (raw)” value ([3]; Cmpd 0.008 uM) was 101 and 104, the “FP signal as fraction of no-compound (0 uM) control” value ([3]; Cmpd 0.008 uM) was 0.5941 and 0.6118 and the “FP signal (raw)” value ([3]; Cmpd 0.016 uM) was 93 and 101. The “FP signal as fraction of no-compound (0 uM) control” value ([3]; Cmpd 0.016 uM) was 0.5471 and 0.5941, the “FP signal (raw)” value ([3]; Cmpd 0.063 uM) was 72 and 79 and the “FP signal as fraction of no-compound (0 uM) control” value ([3]; Cmpd 0.063 uM) was 0.4235 and 0.4647. The “FP signal (raw)” value ([3]; Cmpd 0.25 uM) was 38 and 42, the “FP signal as fraction of no-compound (0 uM) control” value ([3]; Cmpd 0.25 uM) was 0.2235 and 0.2471 and the “FP signal (raw)” value ([3]; Cmpd 0.5 uM) was 24 and 26. The “FP signal as fraction of no-compound (0 uM) control” value ([3]; Cmpd 0.5 uM) was 0.1412 and 0.1529, the “FP signal (raw)” value ([3]; Cmpd 1 uM) was 15 and 17 and the “FP signal as fraction of no-compound (0 uM) control” value ([3]; Cmpd 1 uM) was 0.1 and 0.08824. For the same compound, the “FP signal (raw)” value ([3]; Cmpd 2 uM) was 20 and the “FP signal as fraction of no-compound (0 uM) control” value ([3]; Cmpd 2 uM) was 0.1176.
